Where “and” joins values, the source holds several entries; their conditions need not be identical. Equal entries are not always repeated. Entries after “also recorded” stand apart in the source; their conditions may differ.
What was measured:
VEGF = VEGF level after 8 weeks of dietary EGCg supplementation in aged SD rats (multi-analyte profiling); type: in vivo, Sprague Dawley rat; settings: for VEGF: gastrocnemius muscle lysate, 22 mos at sacrifice
Experimental: (§1) Example 3 illustrates the effect of 8 weeks of dietary EGCg supplementation on skeletal muscle biomarkers in the aged Sprague Dawley (SD) rat model of sarcopenia. More particularly, gastrocnemius muscle lysates of aged SD rats administered EGCg were analyzed for changes in various skeletal muscle biomarkers.
(§2) In Vivo Study 1—Aged (25 Months Old) Vs. Adult (13 Months Old)-Male SD rats (12 months old; adult rats; Dataset A) and male SD rats (24 months old; aged rats; Dataset B) were purchased from Harlan (Indianapolis, Ind.). The rats were single-housed in cages with hardwood chip bedding and were exposed to a 12-hour light cycle. At receipt, rats had ad libitum access to natural chow (Teklad Global 18% Protein Rodent Diet, catalog #2018S, Harlan) and water during adaptation to the animal facility. Adult rats (Dataset A) were 13 months old at the time of sacrifice, and aged rats (Dataset B) were 25 months old at the time of sacrifice. The right gastrocnemius muscle of the rats were collected and flash-frozen on liquid nitrogen.
(§3) In Vivo Study 2—EGCg Supplementation-Male SD rats (19 months old) were purchased from Harlan (Indianapolis, Ind.). The rats were single-housed in cages with hardwood chip bedding and were exposed to a 12-hour light cycle. At receipt, rats had ad libitum access to purified diet AIN-93M (Research Diets, #D10012M) and water during adaptation to the animal facility. Subsequently, the rats were given ad libitum access to AIN-93M diet supplemented with EGCg-rich (>95%) Teavigo® at 200 mg/kg body weight (Dataset C) for 8 weeks.
as §3, with “Vivo Study 3—EGCg Supplementation-Male SD” for “Vivo Study 2—EGCg Supplementation-Male SD”, “access to either AIN-93M diet (Dataset D) or AIN-93M diet” for “access to AIN-93M diet”, “Teavigo® at 50 mg/kg body” for “Teavigo® at 200 mg/kg body”, “weight (Dataset E) for 8” for “weight (Dataset C) for 8”
(§4) Preparation of Muscle Lysates-Whole gastrocnemius muscles were collected from euthanized rats (Dataset A, Dataset B, Dataset C, Dataset D, and Dataset E) and flash-frozen on liquid nitrogen and stored in aluminum foil at −80° C. Subsequently, the gastrocnemius muscle samples were partially thawed on dry ice. Approximately 200 mg of tissue was obtained from each muscle sample by mechanical biopsy punch. The specimens were quickly pulverized on liquid nitrogen and transferred to a 15 mL conical tube and weighed. A mild, detergent-free lysis buffer (9×) was added to the dried specimen in the conical tube. 9× Lysis buffer (50 mM Tris.HCl, 2 mM EDTA, pH 7.4/NaOH) was supplemented with a mammalian protease inhibitor cocktail (Sigma-Aldrich, Inc.) at a 1:200 dilution and stored on ice. The specimens were then vortexed for 10 seconds ahead of homogenization at 25×1000 rpm for approximately 10 seconds. The lysate was vortexed again for 10 seconds and transferred to a 1.5 mL tube. Lysates were centrifuged/clarified for 5 minutes at 11000 rpm at 4° C. in a standard table-top Eppendorf centrifuge. Supernatant (1 mL) was aliquotted to a 2 mL cryotube and stored at −80° C. Lysates were analyzed by Myriad Rules Based Medicine (Austin, Tex.) on the RodentMAP® v.2.0 Antigens and Rat METABOLIC® multi-analyte profiling platforms.

interleukin-1A (IL1A) = assay: IL1A level after 8 weeks of dietary EGCg supplementation in aged SD rats (multi-analyte profiling); type: in vivo, Sprague Dawley rat; settings: for IL1A: gastrocnemius muscle lysate, 22 mos at sacrifice
Experimental: as §1, §2, §3
as §3, with “Vivo Study 3—EGCg Supplementation-Male SD” for “Vivo Study 2—EGCg Supplementation-Male SD”, “access to either AIN-93M diet (Dataset D) or AIN-93M diet” for “access to AIN-93M diet”, “Teavigo® at 50 mg/kg body” for “Teavigo® at 200 mg/kg body”, “weight (Dataset E) for 8” for “weight (Dataset C) for 8”
as §4

gastrocnemius muscle = assay: Gastrocnemius muscle wet weight in the aged SD rat model of sarcopenia; type: in vivo, Sprague Dawley rat; settings: 8 weeks
Experimental: (§5) Example 4 illustrates the effect of 8 weeks of dietary EGCg supplementation in the aged Sprague Dawley (SD) rat model of sarcopenia. More particularly, the level of myostatin in gastrocnemius muscle lysates of young SD rats (“young”), aged SD rats (“old”), and aged SD rats administered EGCg (“old-EGCg”) was analyzed and compared.
In Vivo Study—EGCg Supplementation-Male SD rats (20 months old) were purchased from Harlan (Indianapolis, Ind.). The rats were single-housed in cages with hardwood chip bedding and were exposed to a 12-hour light cycle. For 1 week, rats had ad libitum access to purified diet AIN-93M (Research Diets, #D10012M) and water during adaptation to the animal facility. The AIN-93M diet typically comprises about 13% (by weight) protein, about 73% (by weight) carbohydrate, and about 4% (by weight) fat, and has an energy content of about 3.77 kcal/gram. Subsequently, the rats were given ad libitum access to AIN-93M diet supplemented with EGCg (>95%) (Teavigo, DSM) at 200 mg/kg body weight (n=12) (“old-EGCg” or “EGCg supplemented”) or control AIN-93 diet (n=11) (“old” or “Control”) for 8 weeks.
as §4, with “rats, weighed,” for “rats (Dataset A, Dataset B, Dataset C, Dataset D, and Dataset E)”, “Lysates were centrifuged/clarified for 5 minutes at 11000 rpm at 4° C. in a standard table-top Eppendorf centrifuge. Supernatant (1 mL) was aliquotted to a 2 mL cryotube and stored at −80° C. Lysates were analyzed by Myriad Rules Based Medicine (Austin, Tex.) on the RodentMAP® v.2.0 Antigens and Rat METABOLIC® multi-analyte profiling platforms.” left out

myostatin = assay: Western blot of myostatin in gastrocnemius muscle lysates of aged SD rats; type: in vivo, Sprague Dawley rat; settings: EGCg 200 mg/kg body weight, 8 weeks
Experimental: as §5
In Vivo Study—EGCg Supplementation-Male SD rats (20 months old) were purchased from Harlan (Indianapolis, Ind.). The rats were single-housed in cages with hardwood chip bedding and were exposed to a 12-hour light cycle. For 1 week, rats had ad libitum access to purified diet AIN-93M (Research Diets, #D10012M) and water during adaptation to the animal facility. The AIN-93M diet typically comprises about 13% (by weight) protein, about 73% (by weight) carbohydrate, and about 4% (by weight) fat, and has an energy content of about 3.77 kcal/gram. Subsequently, the rats were given ad libitum access to AIN-93M diet supplemented with EGCg (>95%) (Teavigo, DSM) at 200 mg/kg body weight (n=12) (“old-EGCg” or “EGCg supplemented”) or control AIN-93 diet (n=11) (“old” or “Control”) for 8 weeks. […]
Western blot analysis was carried out using anti-myostatin antibodies (Anti-GDF8/Myostatin antibody-Cat.# ab996-Abcam). […] Blots were scanned by densitometry to quantitate differences. […]

[1] = system: myostatin in C2C12 myotubes; assay: Western blot of myostatin expression in serum starved C2C12 myotubes; type: cell-based; settings: for Myostatin (% control): 24 hrs, NC = 100, No Serum = 315
Experimental: Example 5 illustrates the effect of EGCg on expression of myostatin in serum starved C2C12 myotubes. C2C12 myoblasts were passaged in DMEM supplemented with 10% fetal calf serum (FCS), 1% glutamine, and 1% penicillin-streptomycin under an atmosphere of 10% CO2 in air at 37° C. When the myoblasts reached about 80% confluency, they were differentiated into myotubes in DMEM containing 2% horse serum (HS), with medium changes every 2 days. Differentiation was complete in 5-7 days, and the myotubes remained viable for a further 4-5 days.
To induce protein degradation in the myotubes, HS-supplemented DMEM media was replaced with DMEM medium without any serum for 24 hrs, while the negative control group of myotubes (“NC”) was not deprived of serum (i.e., the NC group was re-fed with DMEM media containing 2% HS). Myotubes were treated with EGCg (10 μM and 25 μM) over this serum starvation period. Western blot analysis was carried out on cell lysates as described in Example 4.
FIG. 4 and Table 5 illustrate the expression of myostatin in the non-serum starved control cells (“NC”), serum starved control cells (“No Serum”), and EGCg treated serum starved cells (“No Serum+10 μM EGCg” and “No Serum+25 μM EGCg”). The densitometric analysis was based on three separate blots. Results are expressed as mean plus S.E.M., and statistical analysis between groups was determined by one-way ANOVA followed by Tukey's test. The difference from the “NC” group is indicated as “a” (p<0.01), while the difference from the “No Serum” group is indicated as “b” (p<0.01).

[2] = 8 weeks of dietary EGCg supplementation, aged SD rats
[3] = Dataset C, EGCg 200 mg/kg bw in diet, 8 weeks, Quantitative Assay I
[4] = Dataset E, EGCg 50 mg/kg bw in diet, 8 weeks, Quantitative Assay II
[5] = muscle, EGCg 50 mg/kg bw v. control diet, 22 mos, n.s.
[6] = serum, EGCg 200 mg/kg bw, 8 weeks, n.s.

In the case of epigallocatechin-3-gallate [EGCg], the “level of VEGF in gastrocnemius muscle (in words)” value (VEGF; [2]) is reported as “significant increase”, the “VEGF” value (VEGF; [3]) is reported as 229 pg/mL and the “VEGF” value (VEGF; [4]) is reported as 479 pg/mL. The “VEGF % change Dataset E/Dataset D” value (VEGF; [5]) was −5% (n.s.), the “VEGF, Serum, Dataset C (EGCg Supplemented - 22 mos.) v. Dataset B (25 mos.)” value (VEGF; [6]) was −15% (n.s.) and the “level of IL1A in gastrocnemius muscle (in words)” value (interleukin-1A (IL1A); [2]) was “significant decrease”. The “IL1A” value (interleukin-1A (IL1A); [3]) was 14.3 pg/mL, the “IL1A” value (interleukin-1A (IL1A); [4]) was 28.0 pg/mL and the “IL1A % change Dataset E/Dataset D” value (interleukin-1A (IL1A); [5]) was −12% (n.s.). For the same substance, the “IL1A, Serum, Dataset C (EGCg Supplemented - 22 mos.) v. Dataset B (25 mos.)” value (interleukin-1A (IL1A); [6]) was −8% (n.s.), the “gastrocnemius muscle wet weight compared to Control rats (in words)” value (gastrocnemius muscle; EGCg 200 mg/kg body weight) was “significant increase” and the “Muscle wet weight % change from control” value (gastrocnemius muscle; gastrocnemius, EGCg 200 mg/kg body weight in diet) was “+5.12%”. For the same substance, the “Muscle Wet Weight (grams)” value (gastrocnemius muscle; gastrocnemius, EGCg 200 mg/kg body weight in diet, n=12, p < 0.05 compared to Control) was 3.00 ± 0.03 grams, the “intramuscular myostatin levels compared to old rats without EGCg (in words)” value (myostatin; western blot) was “decrease” and the “Myostatin (% cage control)” value (myostatin; Old-EGCg rats (22 months old), single rats (ID 3, 6, 9), densitometry, Old rats 700-800) was 80 % cage control and 140 % cage control and 120 % cage control. For the same substance, the “Myostatin (% control)” value ([1]; No Serum + 10 μM EGCg) was 55 % control, the “Myostatin (% control)” value ([1]; No Serum + 25 μM EGCg) was 43 % control and the “myostatin levels compared to the No Serum group (in words)” value ([1]; serum starved C2C12 myotubes, EGCg 10 μM and 25 μM) was “significantly lower; also recorded: decrease”.

— patent publication US9844531B2, “Methods of maintaining and improving muscle function” (ABBOTT LABORATORIES, priority 2013, dated 2017)
